Measurements published in patent US20240199755A1, “ANTAGONISTS AND AGONISTS OF THE TRANSFERRIN RECEPTOR-2 FOR USE IN THE TREATMENT OF DISEASES OF THE BONE” (Kymab Limited, priority 2018, published 2024).

What was measured:
[1] = test system: Sost mRNA expression in osteoblasts; assay: Sost mRNA expression (qPCR) in ex vivo differentiated osteoblasts after anisomycin; type: cell-based, mice; conditions: 100 nM anisomycin, 24 h
Description: Primary murine osteoblasts were differentiated from the bone marrow using standard osteogenic medium in DMEM with 10% FCS, 1% penicillin/streptomycin (Life Technologies, Germany). RNA was isolated at various time points and day 7 osteoblasts were used for immunofluorescence analysis of Tfr2 and for the deep sequencing analysis.
(§1) Signaling studies: day 7 differentiated cells were treated with 50 ng/ml BMP-2, BMP-4 or BMP-6 for 0, 20, and 40 min and lysed in protein lysis buffer (at least two independent experiments with 3 n each). Anisomycin was used to activate MAPK signaling on day 7 differentiated osteoblasts. Cells were treated with 100 nM anisomycin for 20 min for subsequent protein analysis. For RNA isolation and detection of gene expression, cells were treated with different doses of anisomycin for 24 h (two independent experiments with 3 n each).
RNA from cell cultures was isolated with the High Pure RNA Isolation Kit (Roche) and RNA from the bones of mice was isolated by crushing flushed bones (femur and tibia) in liquid nitrogen and collecting the bone powder in Trifast (Peqlab, Germany). Other organs were homogenized directly in Trifast using an ultraturrax (IKA, Germany). […] The results were calculated using the ΔΔCT method and are presented in x-fold increase relative to β-actin (or GAPDH where indicated) mRNA levels.

[2] = test system: ERK (pERK) and p38 (pp38) signaling in osteoblasts; assay: Western blot of ERK and p38 activation in osteoblasts after anisomycin; type: cell-based, mice; conditions: 100 nM anisomycin for 20 min
Description: as §1
Cells were lysed in a buffer containing 20 mM Tris/HCl pH 7.4, 1% SDS, and a protease inhibitor (complete mini, Roche, Germany). To isolate protein from tissues, the protein fraction of the Trifast procedure was used and further processed according to the manufacturer's protocol. The protein concentration was determined using the BCA method (Pierce, Germany). Twenty μg of heatdenatured protein was loaded onto a 10% gel, separated, and transferred onto a 0.2 μm nitrocellulose membrane (Whatman, Germany). […]

[3] = test system: bone mass of Tfr2-/- mice; assay: Anisomycin treatment of WT and Tfr2-/- mice; type: in vivo; conditions: 5 mg/kg anisomycin for 3 weeks
Tfr2-ECD = biological target: T1, Tfr2-ECD (Mus musculus, UniProt Q9JKX3); assay: SPR binding of holo-Tf and BMP receptors to Tfr2-ECD immobilized on the sensor chip; parameters: species or system murine; conditions: increasing holo-Tf concentrations without intermediate regeneration
T1 construct: full-length extracellular domain (ECD, aa 103-798) of murine Tfr2; His (N); MBP (N); c3 (protease site between MBP and ECD) (N); made in house; host or cells: Sf9 insect cells (baculovirus, pOCC211-Tfr2-ECD)
T1 sequence (Q9JKX3 103-798): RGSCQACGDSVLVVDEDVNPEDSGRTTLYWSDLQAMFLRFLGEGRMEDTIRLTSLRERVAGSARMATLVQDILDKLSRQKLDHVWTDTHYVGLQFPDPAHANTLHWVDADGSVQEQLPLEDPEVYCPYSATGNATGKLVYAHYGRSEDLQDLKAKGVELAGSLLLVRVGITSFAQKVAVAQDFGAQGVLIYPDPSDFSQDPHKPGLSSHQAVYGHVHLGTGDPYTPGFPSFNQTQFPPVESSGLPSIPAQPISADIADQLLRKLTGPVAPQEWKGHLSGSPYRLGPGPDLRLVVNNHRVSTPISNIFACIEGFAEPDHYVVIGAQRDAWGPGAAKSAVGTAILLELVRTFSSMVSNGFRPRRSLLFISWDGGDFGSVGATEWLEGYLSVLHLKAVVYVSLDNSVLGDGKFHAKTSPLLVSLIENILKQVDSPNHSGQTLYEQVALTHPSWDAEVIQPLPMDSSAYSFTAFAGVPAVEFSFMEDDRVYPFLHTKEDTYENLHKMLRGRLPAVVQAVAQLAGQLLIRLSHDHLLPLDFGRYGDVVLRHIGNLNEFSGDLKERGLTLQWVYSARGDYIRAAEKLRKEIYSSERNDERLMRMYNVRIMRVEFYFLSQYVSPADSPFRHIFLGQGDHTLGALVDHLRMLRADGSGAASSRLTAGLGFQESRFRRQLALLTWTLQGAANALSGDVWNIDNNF
Description: For this purpose, Tfr2-ECD is immobilized on a Series S Sensor Chip C1 (GE Healthcare), by means of coupling the amino groups at 25° C. The carboxyl groups on the chip surface are activated for 7 minutes using a mixture of 196 mM 1-ethyl-3-(3-dimethylaminopropyl) carbodiimide-hydrochloride and 50 mM n-hydroxysuccinimide at a flow rate of 10 μl/min. Subsequently, 5 μg/ml Tfr2-ECD, diluted with sodium acetate buffer (pH 4.5), is injected at a flow rate of 5 μl/min up to a relative occupancy of 200 RU. Non-reacted groups are inactivated by injecting 1 M thanolamine-HCl (pH 8.5) for 7 minutes at a flow rate of 10 μl/min. In order to prepare a reference surface, the same procedure is carried out but without Tfr2-ECD being injected.
The binding assays are carried out at 37° C. at a flow rate of 30 μl/min. Each analyte is diluted by a running buffer (HBS-P, pH 7.4 together with 50 nM FeCl3). […] The values of the binding level are read out, relative to the baseline, 10 s before the end of the injection and are corrected with respect to the molar mass. […] The binding parameters are determined using the Biacore™ T100 evaluation software 2.03. […]
For binding analysis, an injection of analyte for 240 s or 300 s over a Tfr2-ECD surface was followed by 1000 s dissociation. The values of the binding levels were recorded from referenced signals 10 s before the end of injection relative to baseline response. […]

[4] = biological target: T2, BMP-2 binding to Tfr2-ECD (Homo sapiens, UniProt P12643); assay: SPR competition / sequential injection experiments on Tfr2-ECD surface; conditions: sequential injection of BMP-2 and holo-Tf
T2 construct: full-length extracellular domain (ECD, aa 103-798) of murine Tfr2; His (N); MBP (N); c3 (protease site between MBP and ECD) (N); host or cells: Sf9 insect cells (Tfr2-ECD)
T2 sequence (P12643 283-396): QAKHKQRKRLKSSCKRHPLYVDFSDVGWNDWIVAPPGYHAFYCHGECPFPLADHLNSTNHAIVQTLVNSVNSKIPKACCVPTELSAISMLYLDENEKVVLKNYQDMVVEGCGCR
Description: The binding analysis was performed at 37° C. at a flow rate of 30 μl/min. […] In some experiments, 500 mM NaCl were used to reduce potential non-specific binding. […] Concentration-dependent binding of holo-Tf was performed without intermediate regeneration.

Kd value of holo-Tf binding to Tfr2 (Tfr2-ECD)	Competition with BMP-2 for binding to Tfr2 [4]	Molecule	Increase of Sost mRNA expression ([1]; Tfr2 osteoblasts)	Increase of Sost mRNA expression ([1]; WT osteoblasts)	ERK and p38 phosphorylation [2]	Osteoclast numbers (Oc.S/BS) [3]	Bone volume (BV/TV of the fourth lumbar vertebrae) ([3]; Tfr2-/- mice)	Osteoblast numbers (N.Ob/B.Pm) ([3]; Tfr2-/- mice)	Serum levels of sclerostin ([3]; Tfr2-/- mice)
		COc1ccc(C[C@H]2NC[C@H](O)[C@H]2OC(C)=O)cc1 [anisomycin]	19 fold	14 fold	induced ERK and p38 phosphorylation	not altered	decreased bone volume back to WT levels	reduced	increased
micromolar range	did not compete	Holo-Tf: holo-transferrin, the only known Tfr2 ligand							
